Data published in the kinase profiling compilation of Christmann-Franck et al. (2016).

Legend:
Assay in all cases: radiometric filter-binding kinase assay, Kinase HotSpot
Conditions in all cases: compound 0.5 µM; ATP 10 µM
OXSR1 (human) = OXSR1 (human) (UniProt O95747)
FRK (human) = FRK (human) (UniProt P42685)
FLT3 (human) = FLT3 (human) (UniProt P36888)
BRSK2 (human) = BRSK2 (human) (UniProt Q8IWQ3)
AURKB (human) = AURKB (human) (UniProt Q96GD4)
CSNK2A2 (human) = CSNK2A2 (human) (UniProt P19784)
MAP4K2 (human) = MAP4K2 (human) (UniProt Q12851)
IGF1R (human) = IGF1R (human) (UniProt P08069)
NEK4 (human) = NEK4 (human) (UniProt P51957)
MARK1 (human) = MARK1 (human) (UniProt Q9P0L2)
MKNK2 (human) = MKNK2 (human) (UniProt Q9HBH9)
CSNK1G2 (human) = CSNK1G2 (human) (UniProt P78368)
CSNK1E (human) = CSNK1E (human) (UniProt P49674)
[1] = target: TYK2 JH1 catalytic (human) (UniProt P29597)
GSG2 (human) = GSG2 (human) (UniProt Q8TF76)
GRK6 (human) = GRK6 (human) (UniProt P43250)
ACVRL1 (human) = ACVRL1 (human) (UniProt P37023)
HIPK4 (human) = HIPK4 (human) (UniProt Q8NE63)
STK17A (human) = STK17A (human) (UniProt Q9UEE5)
PRKD1 (human) = PRKD1 (human) (UniProt Q15139)
CDK4 CCND1 (human) = CDK4 CCND1 (human) (UniProt P24385+P11802)
TAOK3 (human) = TAOK3 (human) (UniProt Q9H2K8)
NTRK2 (human) = NTRK2 (human) (UniProt Q16620)
NUAK2 (human) = NUAK2 (human) (UniProt Q9H093)
MINK1 (human) = MINK1 (human) (UniProt Q8N4C8)
MARK3 (human) = MARK3 (human) (UniProt P27448)
PRKCB1 (human) = PRKCB1 (human) (UniProt P05771)
PIM3 (human) = PIM3 (human) (UniProt Q86V86)
EPHB1 (human) = EPHB1 (human) (UniProt P54762)
RPS6KA3 KD1 KD2 (human) = RPS6KA3 KD1 KD2 (human) (UniProt P51812)
ABL2 (human) = ABL2 (human) (UniProt P42684)
KIT (human) = KIT (human) (UniProt P10721)
EPHA2 (human) = EPHA2 (human) (UniProt P29317)
LCK (human) = LCK (human) (UniProt P06239)
AKT1 (human) = AKT1 (human) (UniProt P31749)
CHEK2 (human) = CHEK2 (human) (UniProt O96017)
CDK1 CCNA2 (human) = CDK1 CCNA2 (human) (UniProt P06493+P20248)
CSK (human) = CSK (human) (UniProt P41240)
MAPKAPK2 (human) = MAPKAPK2 (human) (UniProt P49137)
STK39 (human) = STK39 (human) (UniProt Q9UEW8)
PIM1 (human) = PIM1 (human) (UniProt P11309)
CDK2 CCNA2 (human) = CDK2 CCNA2 (human) (UniProt P24941+P20248)

Sequence of IGF1R (human) (P08069 whole entry, looked up): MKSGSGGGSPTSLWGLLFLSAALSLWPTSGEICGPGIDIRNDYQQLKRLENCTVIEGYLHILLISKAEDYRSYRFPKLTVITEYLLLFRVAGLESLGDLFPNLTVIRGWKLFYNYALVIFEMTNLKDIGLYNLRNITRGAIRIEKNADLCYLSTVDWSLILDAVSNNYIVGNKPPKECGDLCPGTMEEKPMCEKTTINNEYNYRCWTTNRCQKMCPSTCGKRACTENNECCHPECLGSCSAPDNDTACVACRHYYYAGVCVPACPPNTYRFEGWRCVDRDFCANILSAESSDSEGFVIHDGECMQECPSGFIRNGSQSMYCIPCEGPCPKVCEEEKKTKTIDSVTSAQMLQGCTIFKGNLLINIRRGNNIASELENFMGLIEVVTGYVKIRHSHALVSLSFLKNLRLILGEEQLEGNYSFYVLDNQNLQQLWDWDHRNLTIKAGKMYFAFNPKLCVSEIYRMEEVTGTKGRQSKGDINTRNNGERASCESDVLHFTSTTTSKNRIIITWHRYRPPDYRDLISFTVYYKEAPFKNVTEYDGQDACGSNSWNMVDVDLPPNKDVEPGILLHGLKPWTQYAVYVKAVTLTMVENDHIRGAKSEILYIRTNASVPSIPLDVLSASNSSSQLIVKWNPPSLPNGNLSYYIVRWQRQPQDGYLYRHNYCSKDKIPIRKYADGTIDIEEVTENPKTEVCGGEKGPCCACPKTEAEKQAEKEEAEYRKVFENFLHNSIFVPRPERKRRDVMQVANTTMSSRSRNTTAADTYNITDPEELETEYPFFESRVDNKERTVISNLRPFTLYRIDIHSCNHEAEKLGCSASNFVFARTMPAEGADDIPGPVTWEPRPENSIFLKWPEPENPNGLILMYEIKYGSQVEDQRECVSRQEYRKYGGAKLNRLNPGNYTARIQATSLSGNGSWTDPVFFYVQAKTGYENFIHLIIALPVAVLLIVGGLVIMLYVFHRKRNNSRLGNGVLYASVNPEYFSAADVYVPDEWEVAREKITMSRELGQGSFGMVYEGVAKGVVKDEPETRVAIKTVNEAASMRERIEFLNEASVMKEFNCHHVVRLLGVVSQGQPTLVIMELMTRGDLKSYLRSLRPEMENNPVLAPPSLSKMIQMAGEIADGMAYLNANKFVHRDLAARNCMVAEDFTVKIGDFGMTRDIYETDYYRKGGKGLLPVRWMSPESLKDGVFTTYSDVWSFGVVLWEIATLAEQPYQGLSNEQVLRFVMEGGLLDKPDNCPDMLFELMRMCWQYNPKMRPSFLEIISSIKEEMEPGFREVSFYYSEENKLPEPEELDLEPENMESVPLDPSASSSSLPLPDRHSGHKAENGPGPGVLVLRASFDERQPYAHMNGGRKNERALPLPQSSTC
Sequence of STK17A (human) (Q9UEE5 whole entry, looked up): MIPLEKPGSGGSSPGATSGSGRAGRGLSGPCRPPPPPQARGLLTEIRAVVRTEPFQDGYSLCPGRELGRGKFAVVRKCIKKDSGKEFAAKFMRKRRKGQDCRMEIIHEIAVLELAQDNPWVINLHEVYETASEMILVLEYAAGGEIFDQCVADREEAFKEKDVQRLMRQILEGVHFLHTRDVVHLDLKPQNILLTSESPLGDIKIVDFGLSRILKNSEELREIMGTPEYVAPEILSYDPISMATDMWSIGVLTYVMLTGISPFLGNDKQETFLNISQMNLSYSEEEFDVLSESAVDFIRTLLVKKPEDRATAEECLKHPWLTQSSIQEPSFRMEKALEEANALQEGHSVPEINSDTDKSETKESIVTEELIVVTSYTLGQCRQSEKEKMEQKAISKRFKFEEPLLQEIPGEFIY
Sequence of CSNK2A2 (human) (P19784 whole entry, looked up): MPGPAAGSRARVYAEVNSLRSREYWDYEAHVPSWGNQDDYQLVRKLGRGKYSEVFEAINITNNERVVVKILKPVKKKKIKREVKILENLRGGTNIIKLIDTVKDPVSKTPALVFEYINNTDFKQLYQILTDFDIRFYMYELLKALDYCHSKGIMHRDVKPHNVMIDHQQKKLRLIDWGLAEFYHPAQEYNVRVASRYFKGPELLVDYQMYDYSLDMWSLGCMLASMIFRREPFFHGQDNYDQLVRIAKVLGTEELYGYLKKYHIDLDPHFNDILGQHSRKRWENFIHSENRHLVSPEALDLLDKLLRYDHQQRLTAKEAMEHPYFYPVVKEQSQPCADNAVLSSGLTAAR
Sequence of PRKCB1 (human) (P05771 whole entry, looked up): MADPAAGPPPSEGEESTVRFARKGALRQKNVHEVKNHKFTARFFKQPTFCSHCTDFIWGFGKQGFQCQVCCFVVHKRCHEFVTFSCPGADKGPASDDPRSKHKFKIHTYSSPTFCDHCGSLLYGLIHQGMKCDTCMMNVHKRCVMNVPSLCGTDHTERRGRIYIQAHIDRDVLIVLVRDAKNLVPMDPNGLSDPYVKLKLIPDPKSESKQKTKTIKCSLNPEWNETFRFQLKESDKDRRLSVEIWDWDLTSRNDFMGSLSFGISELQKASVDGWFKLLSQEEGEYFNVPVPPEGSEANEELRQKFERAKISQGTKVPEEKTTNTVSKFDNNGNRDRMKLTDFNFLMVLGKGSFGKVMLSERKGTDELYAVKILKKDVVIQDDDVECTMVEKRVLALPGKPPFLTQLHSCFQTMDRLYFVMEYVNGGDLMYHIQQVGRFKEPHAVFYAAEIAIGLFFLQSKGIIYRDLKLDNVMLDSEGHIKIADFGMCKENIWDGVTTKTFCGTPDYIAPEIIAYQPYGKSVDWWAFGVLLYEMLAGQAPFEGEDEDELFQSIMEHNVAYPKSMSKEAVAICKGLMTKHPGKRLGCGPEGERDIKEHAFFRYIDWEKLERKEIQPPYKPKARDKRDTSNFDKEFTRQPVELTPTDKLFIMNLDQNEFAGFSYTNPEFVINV
Sequence of PRKD1 (human) (Q15139 whole entry, looked up): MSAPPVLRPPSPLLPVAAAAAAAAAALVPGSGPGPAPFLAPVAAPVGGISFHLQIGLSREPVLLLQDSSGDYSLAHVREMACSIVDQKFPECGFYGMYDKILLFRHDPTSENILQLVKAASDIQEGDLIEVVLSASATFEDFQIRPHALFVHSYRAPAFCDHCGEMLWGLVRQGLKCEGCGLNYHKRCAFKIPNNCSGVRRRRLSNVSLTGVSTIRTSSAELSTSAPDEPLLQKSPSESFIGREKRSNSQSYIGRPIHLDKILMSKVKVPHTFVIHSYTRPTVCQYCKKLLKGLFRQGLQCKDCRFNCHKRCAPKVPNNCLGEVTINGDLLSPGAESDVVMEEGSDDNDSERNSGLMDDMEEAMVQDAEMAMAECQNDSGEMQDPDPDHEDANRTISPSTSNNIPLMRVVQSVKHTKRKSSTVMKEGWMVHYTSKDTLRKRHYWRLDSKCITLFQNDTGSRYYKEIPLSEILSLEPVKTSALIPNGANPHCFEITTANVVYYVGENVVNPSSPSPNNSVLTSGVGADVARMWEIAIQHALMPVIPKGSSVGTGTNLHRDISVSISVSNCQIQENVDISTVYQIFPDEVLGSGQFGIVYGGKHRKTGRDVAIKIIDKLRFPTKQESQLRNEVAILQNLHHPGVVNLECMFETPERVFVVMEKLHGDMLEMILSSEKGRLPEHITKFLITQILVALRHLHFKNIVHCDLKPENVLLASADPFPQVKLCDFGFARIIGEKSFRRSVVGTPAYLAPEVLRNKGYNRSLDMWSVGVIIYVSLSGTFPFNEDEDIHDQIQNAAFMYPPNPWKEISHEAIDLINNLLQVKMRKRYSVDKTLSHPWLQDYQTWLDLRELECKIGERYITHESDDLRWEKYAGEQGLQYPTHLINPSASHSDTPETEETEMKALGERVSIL
Sequence of NEK4 (human) (P51957 whole entry, looked up): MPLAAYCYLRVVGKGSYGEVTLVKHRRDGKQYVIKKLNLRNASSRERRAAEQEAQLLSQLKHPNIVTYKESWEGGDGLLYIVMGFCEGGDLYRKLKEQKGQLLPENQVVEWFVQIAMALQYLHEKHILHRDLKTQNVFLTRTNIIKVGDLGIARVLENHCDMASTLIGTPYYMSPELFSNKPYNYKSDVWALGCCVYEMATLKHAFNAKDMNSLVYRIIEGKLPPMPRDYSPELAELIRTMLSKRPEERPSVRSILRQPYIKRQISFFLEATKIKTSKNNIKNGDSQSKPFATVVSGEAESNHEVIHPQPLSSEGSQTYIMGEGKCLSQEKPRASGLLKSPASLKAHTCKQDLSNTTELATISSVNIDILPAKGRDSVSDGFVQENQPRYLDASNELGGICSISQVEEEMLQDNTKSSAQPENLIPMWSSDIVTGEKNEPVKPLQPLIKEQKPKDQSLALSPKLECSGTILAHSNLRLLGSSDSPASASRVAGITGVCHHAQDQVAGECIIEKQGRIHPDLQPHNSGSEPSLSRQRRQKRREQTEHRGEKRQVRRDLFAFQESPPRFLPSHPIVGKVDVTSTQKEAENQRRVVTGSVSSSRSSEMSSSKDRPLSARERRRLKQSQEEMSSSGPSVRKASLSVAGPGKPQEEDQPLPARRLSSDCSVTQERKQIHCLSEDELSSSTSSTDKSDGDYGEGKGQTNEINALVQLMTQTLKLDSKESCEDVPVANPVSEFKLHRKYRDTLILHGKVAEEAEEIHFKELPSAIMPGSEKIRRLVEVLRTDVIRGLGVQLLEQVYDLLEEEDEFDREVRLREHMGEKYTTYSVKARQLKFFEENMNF
Sequence of FRK (human) (P42685 whole entry, looked up): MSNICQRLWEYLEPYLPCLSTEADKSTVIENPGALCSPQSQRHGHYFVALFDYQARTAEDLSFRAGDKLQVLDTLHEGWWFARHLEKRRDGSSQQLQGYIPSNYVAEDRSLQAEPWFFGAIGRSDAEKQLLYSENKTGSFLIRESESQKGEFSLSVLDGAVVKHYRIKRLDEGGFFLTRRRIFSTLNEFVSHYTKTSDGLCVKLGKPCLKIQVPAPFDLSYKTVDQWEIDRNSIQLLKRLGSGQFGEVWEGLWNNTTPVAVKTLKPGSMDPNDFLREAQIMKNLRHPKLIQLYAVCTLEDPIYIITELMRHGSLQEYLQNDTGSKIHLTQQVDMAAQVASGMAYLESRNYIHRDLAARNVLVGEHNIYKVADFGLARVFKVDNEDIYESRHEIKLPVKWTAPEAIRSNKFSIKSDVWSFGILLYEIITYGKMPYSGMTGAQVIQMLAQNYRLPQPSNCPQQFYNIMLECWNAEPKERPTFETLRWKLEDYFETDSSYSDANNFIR

CN(C)C[C@H]1CCn2c(c(C3=C(c4cn(C)c5ccccc45)C(=O)NC3=O)c3ccccc32)C1
residual activity (OXSR1 (human)): 98.4% | residual activity (FRK (human)): 103% | residual activity (FLT3 (human)): 37.1% | residual activity (BRSK2 (human)): 102% | residual activity (AURKB (human)): 96.3% | residual activity (CSNK2A2 (human)): 92.4% | residual activity (MAP4K2 (human)): 99% | residual activity (IGF1R (human)): 101% | residual activity (NEK4 (human)): 96.7% | residual activity (MARK1 (human)): 92.8% | residual activity (MKNK2 (human)): 85.8% | residual activity (CSNK1G2 (human)): 97% | residual activity (CSNK1E (human)): 99.7% | residual activity [1]: 104% | residual activity (GSG2 (human)): 100% | residual activity (GRK6 (human)): 66.4% | residual activity (ACVRL1 (human)): 98.5% | residual activity (HIPK4 (human)): 95.7% | residual activity (STK17A (human)): 87.6% | residual activity (PRKD1 (human)): 101% | residual activity (CDK4 CCND1 (human)): 86.9% | residual activity (TAOK3 (human)): 96.4% | residual activity (NTRK2 (human)): 102% | residual activity (NUAK2 (human)): 121% | residual activity (MINK1 (human)): 97.8% | residual activity (MARK3 (human)): 92.4% | residual activity (PRKCB1 (human)): 3.71% | residual activity (PIM3 (human)): 83.1% | residual activity (EPHB1 (human)): 106% | residual activity (RPS6KA3 KD1 KD2 (human)): 1.81% | residual activity (ABL2 (human)): 96.3% | residual activity (KIT (human)): 92.7% | residual activity (EPHA2 (human)): 102% | residual activity (LCK (human)): 96.5% | residual activity (AKT1 (human)): 98.7% | residual activity (CHEK2 (human)): 95% | residual activity (CDK1 CCNA2 (human)): 67.8% | residual activity (CSK (human)): 104% | residual activity (MAPKAPK2 (human)): 102% | residual activity (STK39 (human)): 102% | residual activity (PIM1 (human)): 63.2% | residual activity (CDK2 CCNA2 (human)): 76.2%

Nc1nnc2[nH]c3ccccc3nc1-2
residual activity (OXSR1 (human)): 92.7% | residual activity (FRK (human)): 96.8% | residual activity (FLT3 (human)): 75.9% | residual activity (BRSK2 (human)): 96.5% | residual activity (AURKB (human)): 101% | residual activity (CSNK2A2 (human)): 94% | residual activity (MAP4K2 (human)): 91.7% | residual activity (IGF1R (human)): 97.5% | residual activity (NEK4 (human)): 97.8% | residual activity (MARK1 (human)): 95.7% | residual activity (MKNK2 (human)): 89.1% | residual activity (CSNK1G2 (human)): 93.8% | residual activity (CSNK1E (human)): 90.2% | residual activity [1]: 107% | residual activity (GSG2 (human)): 82.1% | residual activity (GRK6 (human)): 104% | residual activity (ACVRL1 (human)): 105% | residual activity (HIPK4 (human)): 95.8% | residual activity (STK17A (human)): 95.2% | residual activity (PRKD1 (human)): 94.9% | residual activity (CDK4 CCND1 (human)): 92.4% | residual activity (TAOK3 (human)): 97.1% | residual activity (NTRK2 (human)): 96.4% | residual activity (NUAK2 (human)): 96.3% | residual activity (MINK1 (human)): 97.9% | residual activity (MARK3 (human)): 102% | residual activity (PRKCB1 (human)): 103% | residual activity (PIM3 (human)): 94% | residual activity (EPHB1 (human)): 92.3% | residual activity (RPS6KA3 KD1 KD2 (human)): 88% | residual activity (ABL2 (human)): 95.5% | residual activity (KIT (human)): 100% | residual activity (EPHA2 (human)): 98.5% | residual activity (LCK (human)): 93.6% | residual activity (AKT1 (human)): 106% | residual activity (CHEK2 (human)): 94.4% | residual activity (CDK1 CCNA2 (human)): 95.3% | residual activity (CSK (human)): 100% | residual activity (MAPKAPK2 (human)): 105% | residual activity (STK39 (human)): 116% | residual activity (PIM1 (human)): 94% | residual activity (CDK2 CCNA2 (human)): 86.2%

O=C1Nc2ccccc2/C1=C1\Nc2ccccc2\C1=N/O
residual activity (OXSR1 (human)): 91.7% | residual activity (FRK (human)): 73.3% | residual activity (FLT3 (human)): 2.16% | residual activity (BRSK2 (human)): 28% | residual activity (AURKB (human)): 49.6% | residual activity (CSNK2A2 (human)): 75% | residual activity (MAP4K2 (human)): 57.3% | residual activity (IGF1R (human)): 80.2% | residual activity (NEK4 (human)): 95% | residual activity (MARK1 (human)): 74.8% | residual activity (MKNK2 (human)): 82.1% | residual activity (CSNK1G2 (human)): 89.4% | residual activity (CSNK1E (human)): 46.1% | residual activity [1]: 24.3% | residual activity (GSG2 (human)): 65.6% | residual activity (GRK6 (human)): 89.4% | residual activity (ACVRL1 (human)): 108% | residual activity (HIPK4 (human)): 102% | residual activity (STK17A (human)): 46% | residual activity (PRKD1 (human)): 85% | residual activity (CDK4 CCND1 (human)): 70.9% | residual activity (TAOK3 (human)): 62.6% | residual activity (NTRK2 (human)): 4.08% | residual activity (NUAK2 (human)): 72.5% | residual activity (MINK1 (human)): 50.2% | residual activity (MARK3 (human)): 85.8% | residual activity (PRKCB1 (human)): 94.7% | residual activity (PIM3 (human)): 73.6% | residual activity (EPHB1 (human)): 86.2% | residual activity (RPS6KA3 KD1 KD2 (human)): 61.4% | residual activity (ABL2 (human)): 60.3% | residual activity (KIT (human)): 73.2% | residual activity (EPHA2 (human)): 84.3% | residual activity (LCK (human)): 77.1% | residual activity (AKT1 (human)): 97.8% | residual activity (CHEK2 (human)): 32.3% | residual activity (CDK1 CCNA2 (human)): 88.4% | residual activity (CSK (human)): 93% | residual activity (MAPKAPK2 (human)): 105% | residual activity (STK39 (human)): 90.4% | residual activity (PIM1 (human)): 85.2% | residual activity (CDK2 CCNA2 (human)): 29.6%
